Where “and” joins values, the source holds several entries; their conditions need not be identical. Equal entries are not always repeated. Where two headings read alike, the source gives them in different places.
Experiments:
Total Count = test: Disinfection of effluents, total count; format: cell-based; details: for Total Count: effluents, ClO2 dose 9.86 mg/L, 30 minutes; for Total Count per 100 mL: trickling filters effluents
[1] = tested on: Salmonella choleraesuis, ATCC 10708; format: cell-based; details: pH 5
[2] = Processing of potatoes, micro-biological control of process water
Total Coliform = test: Disinfection of effluents, total coliforms; format: cell-based; details: for Total Coliforms: effluents, ClO2 dose 9.86 mg/L, 30 minutes; for Total Coliform per 100 mL: trickling filters effluents
Confirmed Coliform = test: Disinfection of effluents, confirmed coliforms; format: cell-based; details: for Confirmed Coliforms: effluents, ClO2 dose 9.86 mg/L, 30 minutes; for Confirmed Coliform per 100 mL: trickling filters effluents
[3] = tested on: Rotavirus SA-11, ATCC VR-899; format: cell-based; details: pH 9
[4] = format: physicochemical; details: for Found ppm: test level 0.13 ppm ClO2, taken 0.130 ppm
[5] = ClO2 dose 2.7 mg/L, contact time 5 min
[6] = ClO2 dose 2.7 mg/L, contact time 20 min
[7] = ClO2 dose 2.7 mg/L, contact time 35 min
[8] = ClO2 dose 5.0 mg/L, contact time 15 min
[9] = ClO2 dose 5.0 mg/L, contact time 30 min
[10] = ClO2 dose 5.0 mg/L, contact time 45 min
[11] = ClO2 dose 10.8 mg/L, contact time 5 min
[12] = ClO2 dose 10.8 mg/L, contact time 20 min
[13] = ClO2 dose 10.8 mg/L, contact time 35 min

## [O][Cl+][O-] [Chlorine Dioxide, chlorine dioxide]
Total Count; pH initial 5.5, final 5.6
  Total Count: 15 MPN per 100 ml
Total Count; pH initial 6.5, final 6.7
  Total Count: 30 MPN per 100 ml
Total Count; pH initial 7.5, final 7.6
  Total Count: 1 × 10^2 MPN per 100 ml
Total Count; pH initial 8.2, final 8.1
  Total Count: 2 × 10^2 MPN per 100 ml
Total Count; pH initial 9.1, final 9.2
  Total Count: 2.5 × 10^3 MPN per 100 ml
Total Count; pH initial 10.0, final 10.0
  Total Count: 6.8 × 10^2 MPN per 100 ml
Total Count; [5]
  Total Count per 100 mL: 6.75 × 10^7 per 100 mL
Total Count; [6]
  Total Count per 100 mL: 5.3 × 10^7 per 100 mL
Total Count; [7]
  Total Count per 100 mL: 3.1 × 10^7 per 100 mL
Total Count; [8]
  Total Count per 100 mL: 2.0 × 10^6 per 100 mL
Total Count; [9]
  Total Count per 100 mL: 1.6 × 10^5 per 100 mL
Total Count; [10]
  Total Count per 100 mL: 9.0 × 10^4 per 100 mL
Total Count; [11]
  Total Count per 100 mL: 1.2 × 10^5 per 100 mL
Total Count; [12]
  Total Count per 100 mL: 2.9 × 10^4 per 100 mL
Total Count; [13]
  Total Count per 100 mL: 2.5 × 10^4 per 100 mL
[1]
  reduction in titer: > 6 log 10
Total microbio counts
  Total microbio counts: 1-5 organisms/ml
[2]
  micro-biological control compared with chlorine: better micro-biological control agent than chlorine at 5-10 ppm
Total Coliform; pH initial 4.6, final 4.4
  Total Coliforms: 4.5 MPN per 100 ml
Total Coliform; pH initial 5.5, final 5.6
  Total Coliforms: 7.8 MPN per 100 ml
Total Coliform; pH initial 6.5, final 6.7
  Total Coliforms: 7.8 MPN per 100 ml
Total Coliform; pH initial 7.5, final 7.6
  Total Coliforms: 49 MPN per 100 ml
Total Coliform; pH initial 8.2, final 8.1
  Total Coliforms: 4.6 × 10^2 MPN per 100 ml
Total Coliform; pH initial 9.1, final 9.2
  Total Coliforms: 5.4 × 10^3 MPN per 100 ml
Total Coliform; pH initial 10.0, final 10.0
  Total Coliforms: 2.4 × 10^4 MPN per 100 ml
Total Coliform; [5]
  Total Coliform per 100 mL: 2.4 × 10^7 per 100 mL
Total Coliform; [6]
  Total Coliform per 100 mL: 1.3 × 10^7 per 100 mL
Total Coliform; [7]
  Total Coliform per 100 mL: 2.4 × 10^6 per 100 mL
Total Coliform; [8]
  Total Coliform per 100 mL: 2.4 × 10^6 per 100 mL
Total Coliform; [9]
  Total Coliform per 100 mL: 7.9 × 10^3 per 100 mL
Total Coliform; [10]
  Total Coliform per 100 mL: 2.4 × 10^3 per 100 mL
Total Coliform; [11]
  Total Coliform per 100 mL: 1.3 × 10^3 per 100 mL
Total Coliform; [12]
  Total Coliform per 100 mL: 3.3 × 10^2 per 100 mL
Confirmed Coliform; pH initial 4.6, final 4.4
  Confirmed Coliforms: 2 MPN per 100 ml
Confirmed Coliform; pH initial 5.5, final 5.6
  Confirmed Coliforms: 2 MPN per 100 ml
Confirmed Coliform; pH initial 6.5, final 6.7
  Confirmed Coliforms: 4.5 MPN per 100 ml
Confirmed Coliform; pH initial 7.5, final 7.6
  Confirmed Coliforms: 17 MPN per 100 ml
Confirmed Coliform; pH initial 8.2, final 8.1
  Confirmed Coliforms: 33 MPN per 100 ml
Confirmed Coliform; pH initial 9.1, final 9.2
  Confirmed Coliforms: 7.9 × 10^2 MPN per 100 ml
Confirmed Coliform; pH initial 10.0, final 10.0
  Confirmed Coliforms: 1.3 × 10^4 MPN per 100 ml
Confirmed Coliform; [5]
  Confirmed Coliform per 100 mL: 1.3 × 10^7 per 100 mL
Confirmed Coliform; [6]
  Confirmed Coliform per 100 mL: 2.4 × 10^7 per 100 mL
Confirmed Coliform; [7]
  Confirmed Coliform per 100 mL: 2.4 × 10^6 per 100 mL
Confirmed Coliform; [8]
  Confirmed Coliform per 100 mL: 2.4 × 10^6 per 100 mL
Confirmed Coliform; [9]
  Confirmed Coliform per 100 mL: 1.1 × 10^2 per 100 mL
Confirmed Coliform; [11]
  Confirmed Coliform per 100 mL: 1.3 × 10^3 per 100 mL
Confirmed Coliform; [12]
  Confirmed Coliform per 100 mL: 14 per 100 mL
Confirmed Coliform; [13]
  Confirmed Coliform per 100 mL: 7.8 per 100 mL
[3]
  reduction in titer: > 4 log 10
[4]; Day 1, n 6
  Mean: 0.126 ppm
[4]; Day 1
  Found ppm: 0.128 ppm and 0.126 ppm and 0.115 ppm and 0.127 ppm and 0.133 ppm
[4]; Day 5, n 6
  Mean: 0.122 ppm
[4]; Day 5
  Found ppm: 0.125 ppm and 0.122 ppm and 0.117 ppm and 0.123 ppm and 0.118 ppm
[4]; Day 15, n 5
  Mean: 0.129 ppm
[4]; Day 15
  Found ppm: 0.133 ppm and 0.129 ppm and 0.127 ppm and 0.125 ppm and 0.131 ppm and 0.157* ppm
[4]; Day 30, n 5
  Mean: 0.128 ppm
[4]; Day 30
  Found ppm: 0.126 ppm and 0.130 ppm and 0.128 ppm and 0.125 ppm and 0.161* ppm
[4]; Day 48, n 5
  Mean: 0.129 ppm
[4]; Day 48
  Found ppm: 0.131 ppm and 0.127 ppm and 0.128 ppm and 0.164* ppm
[4]; Day 96, n 4
  Mean: 0.133 ppm
[4]; Day 96
  Found ppm: 0.137 ppm and 0.132 ppm and 0.128 ppm and 0.133 ppm and 0.161* ppm

Reference: patent US20120225135A1 (priority 2010, published 2012)
